# What was measured:
# [1] = biological target: T1, human serum albumin (HSA) (Homo sapiens, UniProt P02768); assay: Steady-state fluorescence quenching of HSA; type: binding; settings: for KSV (Stern-Volmer quenching constant) / kq (bimolecular quenching rate constant) / n (number of binding sites): PBS
# T1 construct: purchased Sigma-Aldrich A3782-1G
# Protocol: Steady-state fluorescence and circular dichroism (CD) spectra were measured on a Jasco J-815 optical spectrometer employing a Jasco PFD-425S15F thermostatic cuvette holder. All spectra were recorded with appropriate background corrections. For the steady-state fluorescence data, inner filter corrections were performed, following the literature.
# The steady-state fluorescence measurements were carried out in the 290–450 nm range (λexc = 280 nm) at 289, 296, 303, 310, and 317 K. The addition of compound 23 to a 3.0 mL HSA solution (1.0 × 10^−5 M, in PBS) was done manually, achieving final concentrations of 0.17, 0.33, 0.50, 0.66, 0.83, 0.99, 1.15, and 1.32 × 10^−5 M. To obtain quantitative information on the binding capacity of 23 to HSA, Stern-Volmer, double-logarithmic, van’t Hoff, and Gibbs’ free energy analysis were applied following our previous works.
# [2] = biological target: T1, human serum albumin (HSA); assay: Competitive binding with HSA site probes (warfarin, ibuprofen, digitoxin)
# Protocol: Competitive binding studies were carried out using site probes for sites I, II, and III, i.e., warfarin, ibuprofen, and digitoxin, respectively. The HSA and site probes were used at a fixed concentration (1.0 × 10^−5 M), and the fluorescence quenching titration with compound 23 was performed as described previously for the steady-state fluorescence quenching procedure at 310 K.
# [3] = biological target: T1, human serum albumin (HSA); assay: Time-resolved fluorescence of HSA; type: binding; settings: HSA 1.0 × 10^−5 M with 23 1.32 × 10^−5 M, pH 7.4, 296 K
# Protocol: Time-resolved fluorescence measurements were performed on a model FL920 CD fluorimeter from Edinburgh Instruments equipped with an EPL laser (λexc = 280 ± 10 nm; pulse of 850 ps with energy of 1.8 µW/pulse; monitoring emission at 340 nm). The time-resolved fluorescence decays of a 3.0 mL HSA solution (1.0 × 10^−5 M, in PBS) were obtained without and with compound 23 (1.32 × 10^−5 M).
# [4] = biological target: T1, human serum albumin (HSA); assay: Circular dichroism of HSA; type: binding; settings: HSA 1.0 × 10^−6 M, proportion 1:10, 310 K
# Protocol: The CD analysis was carried out using 3.0 mL of HSA solution (1.0 × 10^−6 M, in PBS) without and with 23 in the proportion 1:10 in the 200–250 nm range at 310 K. The average spectra were obtained from three successive runs and corrected by subtraction of the buffer signal. The secondary structure content was estimated by analysis of the CD spectra using the online server BestSel (Beta Structure Selection http://bestsel.elte.hu/index.php; accessed on 12 March 2022).
# T1 sequence (P02768 25-609): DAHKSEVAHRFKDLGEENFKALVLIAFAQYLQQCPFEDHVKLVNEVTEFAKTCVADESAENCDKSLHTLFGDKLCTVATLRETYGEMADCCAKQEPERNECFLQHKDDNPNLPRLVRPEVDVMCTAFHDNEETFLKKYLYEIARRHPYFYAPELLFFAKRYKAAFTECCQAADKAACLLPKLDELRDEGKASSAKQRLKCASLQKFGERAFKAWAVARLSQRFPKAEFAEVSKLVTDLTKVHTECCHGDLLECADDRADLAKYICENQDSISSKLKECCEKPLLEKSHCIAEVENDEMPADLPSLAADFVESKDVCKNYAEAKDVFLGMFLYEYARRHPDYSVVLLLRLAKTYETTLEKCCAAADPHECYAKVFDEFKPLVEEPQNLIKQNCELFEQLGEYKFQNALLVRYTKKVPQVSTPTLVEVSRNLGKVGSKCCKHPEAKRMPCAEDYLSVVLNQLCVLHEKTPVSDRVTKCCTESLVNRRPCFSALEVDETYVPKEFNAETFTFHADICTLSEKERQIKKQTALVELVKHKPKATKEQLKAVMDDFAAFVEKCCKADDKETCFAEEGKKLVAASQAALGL
structure (smiles),measurement,setting,value
"COc1cc(/C=C/c2nc(-c3cc(OC)c(OC)c(OC)c3)no2)cc(OC)c1OC [Compound 23, (E)-3-(3,4,5-trimethoxyphenyl)-5-[2-(3,4,5-trimethoxyphenyl)-vinyl]-1,2,4-oxadiazole]",ΔG°,[1]; 289 K,−28.7 kJmol^−1
same,KSV (Stern-Volmer quenching constant),[1]; 289 K,1.56 ± 0.02 × 10^5 M^−1
same,kq (bimolecular quenching rate constant),[1]; 289 K,3.22e+13 M⁻¹ s⁻¹
same,n (number of binding sites),[1]; 289 K,0.992 ± 0.01
same,"KSV values, order of magnitude",[1]; 289–317 K,~10^5 M^−1
same,"kq values, order of magnitude",[1]; 289–317 K,~10^13 M^−1s^−1
same,ΔG°,[1]; 296 K,−29.2 kJmol^−1
same,KSV (Stern-Volmer quenching constant),[1]; 296 K,1.44 ± 0.02 × 10^5 M^−1
same,kq (bimolecular quenching rate constant),[1]; 296 K,2.97e+13 M⁻¹ s⁻¹
same,n (number of binding sites),[1]; 296 K,1.04 ± 0.01
same,ΔG°,[1]; 303 K,−29.7 kJmol^−1
same,KSV (Stern-Volmer quenching constant),[1]; 303 K,1.31 ± 0.07 × 10^5 M^−1
same,kq (bimolecular quenching rate constant),[1]; 303 K,2.7e+13 M⁻¹ s⁻¹
same,n (number of binding sites),[1]; 303 K,1.09 ± 0.01
same,ΔG°,[1]; 310 K,−30.2 kJmol^−1
same,KSV (Stern-Volmer quenching constant),[1]; 310 K,1.22 ± 0.01 × 10^5 M^−1
same,kq (bimolecular quenching rate constant),[1]; 310 K,2.52e+13 M⁻¹ s⁻¹
same,n (number of binding sites),[1]; 310 K,1.02 ± 0.01
same,ΔG°,[1]; 317 K,−30.7 kJmol^−1
same,KSV (Stern-Volmer quenching constant),[1]; 317 K,1.19 ± 0.02 × 10^5 M^−1
same,kq (bimolecular quenching rate constant),[1]; 317 K,2.45e+13 M⁻¹ s⁻¹
same,n (number of binding sites),[1]; 317 K,1.02 ± 0.01
same,ΔH°,"[1]; van't Hoff analysis, 289–317 K",−7.85 ± 0.71 kJmol^−1
same,ΔS°,"[1]; van't Hoff analysis, 289–317 K",72.2 ± 2.3 J/(mol·K)
same,decrease of the KSV value in the presence of warfarin,[2]; 310 K,14%
same,main binding site in HSA,[2]; competitive binding with site probes,subdomain IIA (site I)
same,%Relative τ1 of HSA:23,[3],23.5%
same,%Relative τ2 of HSA:23,[3],76.5%
same,τ1 of HSA:23,[3],1.59 ± 0.11 ns
same,τ2 of HSA:23,[3],5.70 ± 0.12 ns
same,τaverage of HSA:23,[3],4.73 ± 0.11 ns
same,effect on the secondary content of HSA (CD),[4],does not significantly perturb

# Reference: article PMC9787607, “A Novel Protocol for the Synthesis of 1,2,4-Oxadiazoles Active against Trypanosomatids and Drug-Resistant Leukemia Cell Lines” (Tropical Medicine and Infectious Disease, 2022)
